EC50 data for nine compounds are collected here from patent EP1212309B1, “CASPASE INHIBITOR” (LG Chem Investment, Ltd., priority 1999, dated 2001).

Molecules are shown by their SMILES.

The subject of this assay is Jurkat T cell. Nature of the assay: MTT assay of cell death induced by Anti-FAS antibody CH11. It counts as cell-based. The settings on record: Homo sapiens; Jurkat T cell treated with Anti-FAS antibody CH11, MTT; read-out: ED50 FAS Induced cell death.

Consider `CC1(C(=O)N[C@@H](CC(=O)O)C(=O)COc2ccccc2)CC([C@H](CCC(=O)O)NC(=O)CCC(=O)O)=NO1` (mixture of isomers) [Compound 46, (3S)-3-{3-[(1S)-1-(succinoylamino)-3-carboxy-propyl]-5-methyl-4,5-dihydro-isoxazole-5-carbonylamino}-4-keto-5-phenoxy-pentanoic acid], for which the EC50 was 1 to 10 µM.

For the compound `CC(C)[C@H](NC(=O)CCC(=O)O)C1=NOC(C)(C(=O)N[C@@H](CC(=O)O)C(=O)COc2ccccc2)C1` (mixture of isomers) [Compound 47, (3S)-3-{3-[2-methyl-(1S)-1-(succinoylamino)-propyl]-5-methyl-4,5-dihydro-isoxazole-5-carbonylamino}-4-keto-5-phenoxy-pentanoic acid], the EC50 is 1 to 10 µM.

With `CC(C)[C@H](NC(=O)CCC(=O)O)C1=NOC(C)(C(=O)N[C@@H](CC(=O)O)C(=O)COc2ccc3ccccc3c2)C1` (single isomer, unassigned) [Compound 81], the EC50 lay within 1 to 10 µM.

With `CC(C)[C@H](NC(=O)c1ccc2ccccc2c1)C1=NOC(C(=O)N[C@@H](CC(=O)O)C(=O)COc2ccc3ccccc3c2)C1` (stereo partly drawn) [Compound 29, (3S)-3-{3-[(1S)-1-(naphthalene-2-carbonylamino)-2-methyl-propyl]-4,5-dihydro-isoxazole-5-carbonylamino}-4-keto-5-(2-naphthyloxy)-pentanoic acid], the EC50 was 1 to 10 µM.

Regarding `CC(C)[C@H](NC(=O)c1ccc2ccccc2c1)C1=NOC(C(=O)N[C@@H](CC(=O)O)C(=O)COc2ccccc2)C1` (stereo partly drawn) [Compound 30, (3S)-3-{3-[2-methyl-(1S)-1-(2-naphthalenecarbonylamino)-propyl]-4,5-dihydro-isoxazole-5-carbonylamino}-4-keto-5-phenoxy-pentanoic acid], the EC50 fell in the range of 1 to 10 µM.

With `CC(C)[C@H](NC(=O)c1cccc2ccccc12)C1=NOC(Cc2ccccc2)(C(=O)N[C@@H](CC(=O)O)C(=O)CN2CCCCC2)C1` (stereo partly drawn) [Compound 48, (3S)-3-{3-[2-methyl-(1S)-1-(1-naphtalenylcarbonylamino)-propyl]-5-phenylmethyl-4,5-dihydro-isoxazole-5-carbonylamino}-4-keto-5-(1-piperidinyl)-pentanoic acid], the EC50 lay in the range of 1 to 10 µM.

As for `CC(C)[C@H](NC(=O)c1cc2ccccc2[nH]1)C1=NOC(Cc2ccccc2)(C(=O)N[C@@H](CC(=O)O)C(=O)COC(=O)c2c(Cl)cccc2Cl)C1` (stereo partly drawn) [Compound 64, (3S)-3-{3-[2-methyl-(1S)-1-(indole-2-carbonylamino)-propyl]-5-phenylmethyl - 4,5-dihydro-isoxazole-5-carbonylamino}-4-keto-5-(2,6-dichlorobenzoyloxy)-pe ntanoic acid], the EC50 is 1 to 10 µM.

Regarding `CC(C)[C@H](NC(=O)c1c[nH]c2ccccc12)C1=NOC(Cc2ccccc2)(C(=O)N[C@@H](CC(=O)O)C(=O)COC(=O)c2c(Cl)cccc2Cl)C1` (stereo partly drawn) [Compound 66, (3S)-3-{3-[2-methyl-(1S)-1-(indole-3-carbonylamino)-propyl]-5-phenylmethyl - 4,5-dihydro-isoxazole-5-carbonylamino}-4-keto-5-(2,6-dichlorobenzoyloxy)-pe ntanoic acid], the EC50 was 1 to 10 µM.

Regarding `CC(C)[C@H](NC(=O)c1cccc2ccccc12)C1=NOC(C)(C(=O)N[C@@H](CC(=O)O)C(=O)COC(=O)c2c(Cl)cccc2Cl)C1` (stereo partly drawn) [Compound 68, (3S)-3-{3-[2-methyl-(1S)-1-(naphthalene-1-carbonylamino)-propyl]-5-methyl-4,5-dihydro-isoxazole-5-carbonylamino}-4-keto-5-(2,6-dichlorobenzoyloxy)-pen tanoic acid], the EC50 lay within 1 to 10 µM.
